Measured values from patent publication US20250197374A1, “WEE1 DEGRADING COMPOUNDS AND USES THEREOF” (BRISTOL-MYERS SQUIBB COMPANY, priority 2023, published 2025).

Key:
Type in all cases: cell-based
WEE1 = molecular target: T1, WEE1 (Homo sapiens, UniProt P30291+Q96SW2); test: WEE1-ePL degradation assay (293T-LentiX, InCELL Hunter luminescence, 4 hr); conditions: for DC50: LentiX-HEK293T cells expressing WEE1-ePL, 4 hr incubation, read-out: 293T-LentiX WEE1-ePL Degradation 4 hr EC50; for 293T-LentiX WEE1-ePL Degradation 4 hr YMin (%): lower limit of fit, % of DMSO control signal remaining
T1 construct: C-terminal ePL-tagged (DiscoverX, Fremont, CA) full-length WEE1 expression construct; expressed in transfected cells; host or cells: LentiX-HEK293T (Invitrogen), lentivirally transduced; the cells also over-express GSPT1-GN
T1 sequence (P30291 whole entry): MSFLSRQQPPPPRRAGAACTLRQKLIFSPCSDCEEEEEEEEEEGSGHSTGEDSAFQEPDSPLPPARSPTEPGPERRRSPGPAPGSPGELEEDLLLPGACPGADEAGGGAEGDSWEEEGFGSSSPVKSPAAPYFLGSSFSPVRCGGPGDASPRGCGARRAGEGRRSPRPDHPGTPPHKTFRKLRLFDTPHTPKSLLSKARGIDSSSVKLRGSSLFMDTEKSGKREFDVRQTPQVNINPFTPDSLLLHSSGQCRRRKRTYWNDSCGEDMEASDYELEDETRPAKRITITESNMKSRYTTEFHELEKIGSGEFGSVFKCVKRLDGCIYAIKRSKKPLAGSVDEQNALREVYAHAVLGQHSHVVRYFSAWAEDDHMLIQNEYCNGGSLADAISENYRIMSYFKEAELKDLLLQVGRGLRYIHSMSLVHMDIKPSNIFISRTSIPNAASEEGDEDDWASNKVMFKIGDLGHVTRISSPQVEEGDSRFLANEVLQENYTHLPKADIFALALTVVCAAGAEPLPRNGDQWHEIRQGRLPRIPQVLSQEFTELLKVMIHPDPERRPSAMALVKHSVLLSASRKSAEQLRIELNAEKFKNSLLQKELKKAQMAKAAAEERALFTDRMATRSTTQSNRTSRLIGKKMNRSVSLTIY
T1 sequence (Q96SW2 whole entry): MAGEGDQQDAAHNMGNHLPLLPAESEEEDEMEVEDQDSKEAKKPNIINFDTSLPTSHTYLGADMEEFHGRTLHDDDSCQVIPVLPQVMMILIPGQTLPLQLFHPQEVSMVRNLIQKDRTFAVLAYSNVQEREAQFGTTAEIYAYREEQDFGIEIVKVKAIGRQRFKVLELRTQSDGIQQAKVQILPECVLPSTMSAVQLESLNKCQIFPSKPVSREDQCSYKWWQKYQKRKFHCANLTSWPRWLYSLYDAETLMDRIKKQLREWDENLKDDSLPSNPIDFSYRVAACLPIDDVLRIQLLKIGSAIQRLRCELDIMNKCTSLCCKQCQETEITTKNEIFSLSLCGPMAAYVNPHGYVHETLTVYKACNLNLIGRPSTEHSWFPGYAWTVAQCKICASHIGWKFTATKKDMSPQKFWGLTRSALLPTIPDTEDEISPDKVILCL
T1 sequence (Q16531 whole entry partner): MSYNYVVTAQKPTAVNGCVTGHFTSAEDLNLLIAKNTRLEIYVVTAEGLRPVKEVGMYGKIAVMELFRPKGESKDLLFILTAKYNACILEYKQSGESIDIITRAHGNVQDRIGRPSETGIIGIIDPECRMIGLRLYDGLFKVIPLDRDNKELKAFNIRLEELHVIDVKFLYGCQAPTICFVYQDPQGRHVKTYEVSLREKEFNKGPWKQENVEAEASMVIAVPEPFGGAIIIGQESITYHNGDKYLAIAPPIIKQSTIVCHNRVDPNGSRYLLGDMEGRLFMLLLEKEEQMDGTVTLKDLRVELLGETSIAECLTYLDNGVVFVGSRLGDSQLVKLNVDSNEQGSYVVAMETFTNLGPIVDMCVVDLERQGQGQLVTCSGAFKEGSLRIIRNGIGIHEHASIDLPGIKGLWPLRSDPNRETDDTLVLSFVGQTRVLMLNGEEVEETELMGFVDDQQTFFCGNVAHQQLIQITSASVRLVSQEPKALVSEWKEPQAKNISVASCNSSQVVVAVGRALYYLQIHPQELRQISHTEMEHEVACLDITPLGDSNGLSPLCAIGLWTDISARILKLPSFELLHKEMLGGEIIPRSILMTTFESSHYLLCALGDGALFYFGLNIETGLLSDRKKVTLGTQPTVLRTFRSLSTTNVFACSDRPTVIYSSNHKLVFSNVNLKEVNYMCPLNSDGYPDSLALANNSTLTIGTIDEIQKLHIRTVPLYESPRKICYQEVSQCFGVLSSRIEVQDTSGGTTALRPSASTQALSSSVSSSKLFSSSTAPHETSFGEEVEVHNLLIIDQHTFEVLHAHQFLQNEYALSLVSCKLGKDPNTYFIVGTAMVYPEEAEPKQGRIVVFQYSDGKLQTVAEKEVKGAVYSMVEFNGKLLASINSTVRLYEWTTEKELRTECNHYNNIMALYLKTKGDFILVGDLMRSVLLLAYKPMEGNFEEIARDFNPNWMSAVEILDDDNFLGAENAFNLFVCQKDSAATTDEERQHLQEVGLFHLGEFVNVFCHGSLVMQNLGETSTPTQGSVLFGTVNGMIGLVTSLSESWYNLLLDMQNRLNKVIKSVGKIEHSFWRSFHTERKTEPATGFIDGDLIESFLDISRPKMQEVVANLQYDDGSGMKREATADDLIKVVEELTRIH
How it was run: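 LentiX-HEK293T cells expressing C-terminally ePL-tagged full-length WEE1 plus non-degradable GSPT1-GN (G575N, N-terminal 158 aa truncated). Treated 4 h at 37 °C with a 10-point, 3-fold series from 1 or 10 µM, then read by InCELL Hunter luminescence. EC50 from four-parameter logistic fit, Ymax set by DMSO control.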

MKN45 cells = test: MKN45 cell proliferation assay (Cell-Titer-Glo, 120 hr); conditions: for EC50: Homo sapiens, MKN-45, 120 h, read-out: MKN45 Cell Prolif. 120 hr EC50; for MKN45 Cell Prolif. 120 hr YMin (%): minimal percent of DMSO control observed
How it was run: (§1)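 MKN45 (400/well) and MDA-MB-231 (800/well) cells in RPMI with 10% FBS were exposed to 10-point half-log doses from 1 or 10 uM (0.1% DMSO) for 120 h at 37 °C. Viability was read by CellTiter-Glo luminescence. EC50 came from blank-subtracted, %DMSO four-parameter fits, with Ymin-obs as the lowest %DMSO observed.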

MDA-MB-231 cells = test: MDA-MB-231 cell proliferation assay (Cell-Titer-Glo, 120 hr); conditions: for EC50: Homo sapiens, MDA-MB-231, 120 h, read-out: MDA-MB 231 Cell Prolif. 120 hr EC50; for MDA-MB 231 Cell Prolif. 120 hr YMin (%): minimal percent of DMSO control observed
How it was run: as §1

SMILES	DC50 (WEE1) [nM]	293T-LentiX WEE1-ePL Degradation 4 hr YMin (%) (WEE1)	EC50 (MKN45 cells) [nM]	EC50 (MDA-MB-231 cells) [nM]	MKN45 Cell Prolif. 120 hr YMin (%) (MKN45 cells)	MDA-MB 231 Cell Prolif. 120 hr YMin (%) (MDA-MB-231 cells)
O=C1CC[C@H](N2Cc3cc(O[C@H]4CCN(Cc5cc(F)c6nc(N7C[C@@H]8CCO[C@@H]8C7)ncc6c5)C4)ccc3C2=O)C(=O)N1 (single isomer, unassigned) [Example 19, (S)-3-(5-(((S)-1-((8-fluoro-2-((3aS*,6aS*)-hexahydro-5H-furo[2,3-c]pyrrol-5-yl)quinazolin-6-yl)methyl)pyrrolidin-3-yl)oxy)-1-oxoisoindolin-2-yl)piperidine-2,6-dione]	6	31.4	12	104	10.1	58.4
O=C1CC[C@H](N2Cc3cc(O[C@H]4CCN(Cc5cc(F)c6nc(N7C[C@H]8CCO[C@H]8C7)ccc6c5)C4)ccc3C2=O)C(=O)N1 (single isomer, unassigned) [Example 7, (S)-3-(5-(((S)-1-((8-fluoro-2-((3aR*,6aR*)-hexahydro-5H-furo[2,3-c]pyrrol-5-yl)quinolin-6-yl)methyl)pyrrolidin-3-yl)oxy)-1-oxoisoindolin-2-yl)piperidine-2,6-dione]	1	31.9	5	74	13.7	64.0
COC[C@@H]1CN(Cc2ccc3nc(N4CCN(C5CN(C)C5)CC4)ccc3c2)C[C@H]1Oc1ccc2c(c1)CN([C@H]1CCC(=O)NC1=O)C2=O [Example 113, (3S)-3-(5-{[(3S,4S)-4-(methoxymethyl)-1-({2-[4-(1-methylazetidin-3-yl)piperazin-1-yl]quinolin-6-yl}methyl)pyrrolidin-3-yl]oxy}-1-oxo-2,3-dihydro-1H-isoindol-2-yl)piperidine-2,6-dione]	9	29.5	4	98	9.0	55.3
COC[C@@H]1CN(Cc2cc(F)c3nc(C4CC(C)OC(C)C4)ccc3c2)C[C@H]1Oc1ccc2c(c1)CN([C@H]1CCC(=O)NC1=O)C2=O (relative stereo) [Example 52, re1-(3S)-3-(5-{[(3S,4S)-1-{[2-(2,6-dimethyloxan-4-yl)-8-fluoroquinolin-6-yl]methyl}-4-(methoxymethyl)pyrrolidin-3-yl]oxy}-1-oxo-2,3-dihydro-1H-isoindol-2-yl)piperidine-2,6-dione]	1	27.2	1	12	8.3	16.7
CC(C)C[C@H]1CN(Cc2cc(F)c3nc(C4CCOCC4)ccc3c2)C[C@@H]1Oc1ccc2c(c1)CN([C@H]1CCC(=O)NC1=O)C2=O (relative stereo) [Example 148, (3S)-3-(5-{[(3R*,4S*)-1-{[8-fluoro-2-(oxan-4-yl)quinolin-6-yl]methyl}-4-(2-methylpropyl)pyrrolidin-3-yl]oxy}-1-oxo-2,3-dihydro-1H-isoindol-2-yl)piperidine-2,6-dione]	1	28.4	3	207	9.9	74.8
COC[C@@H]1CN(Cc2cc3ccc(N4CCN(C(C)=O)C5(CC5)C4)cc3cn2)C[C@H]1Oc1ccc2c(c1)CN([C@H]1CCC(=O)NC1=O)C2=O [Example 88, (3S)-3-(5-{[(3S,4S)-1-[(7-{4-acetyl-4,7-diazaspiro[2.5]octan-7-yl}isoquinolin-3-yl)methyl]-4-(methoxymethyl)pyrrolidin-3-yl]oxy}-1-oxo-2,3-dihydro-1H-isoindol-2-yl)piperidine-2,6-dione]	3	28.3	1	11	9.1	13.1

Further compounds by falling EC50 (MKN45 cells), results first:

DC50 (WEE1) [nM]	293T-LentiX WEE1-ePL Degradation 4 hr YMin (%) (WEE1)	EC50 (MKN45 cells) [nM]	EC50 (MDA-MB-231 cells) [nM]	SMILES	MKN45 Cell Prolif. 120 hr YMin (%) (MKN45 cells)	MDA-MB 231 Cell Prolif. 120 hr YMin (%) (MDA-MB-231 cells)
6	32.4	11	366	O=C1CC[C@H](N2Cc3cc(O[C@H]4CCN(Cc5cc(F)c6nc(N7C[C@H]8CCO[C@H]8C7)ncc6c5)C4)ccc3C2=O)C(=O)N1 (single isomer, unassigned) [Example 9, (S)-3-(5-(((S)-1-((8-fluoro-2-((3aR*,6aR*)-hexahydro-5H-furo[2,3-c]pyrrol-5-yl)quinazolin-6-yl)methyl)pyrrolidin-3-yl)oxy)-1-oxoisoindolin-2-yl)piperidine-2,6-dione]	11.7	45.1
25	29.3	9	98	COC[C@@H]1CN(Cc2cc(F)c3nc(N4CCCC4=O)ncc3c2)C[C@H]1Oc1ccc2c(c1)CN([C@H]1CCC(=O)NC1=O)C2=O [Example 61, (3S)-3-(5-{[(3S,4S)-1-{[8-fluoro-2-(2-oxopyrrolidin-1-yl)quinazolin-6-yl]methyl}-4-(methoxymethyl)pyrrolidin-3-yl]oxy}-1-oxo-2,3-dihydro-1H-isoindol-2-yl)piperidine-2,6-dione]	12.0	41.3
2	28.4	6	73	O=C1CC[C@H](N2Cc3cc(O[C@@H]4CN(Cc5cc(F)c6nc(N7C[C@@H]8CCO[C@@H]8C7)ccc6c5)CC4(F)F)ccc3C2=O)C(=O)N1 (single isomer, unassigned) [Example 15, (S)-3-(5-(((R)-4,4-difluoro-1-((8-fluoro-2-((3aS*,6aS*)-hexahydro-5H-furo[2,3-c]pyrrol-5-yl)quinolin-6-yl)methyl)pyrrolidin-3-yl)oxy)-1-oxoisoindolin-2-yl)piperidine-2,6-dione]	8.8	31.4
4	26.2	2	18	COC[C@@H]1CN(Cc2cc(F)c3nc(C4CN(CC(F)(F)F)C4)ncc3c2)C[C@H]1Oc1ccc2c(c1)CN([C@H]1CCC(=O)NC1=O)C2=O [Example 46, (3S)-3-(5-{[(3S,4S)-1-({8-fluoro-2-[1-(2,2,2-trifluoroethyl)azetidin-3-yl]quinazolin-6-yl}methyl)-4-(methoxymethyl)pyrrolidin-3-yl]oxy}-1-oxo-2,3-dihydro-1H-isoindol-2-yl)piperidine-2,6-dione]	8.7	17.7
1	28.7	1	14	COC[C@@H]1CN(Cc2cc(F)c3nc(N4CCN(C(C)=O)C5(CC5)C4)ccc3c2)C[C@H]1Oc1ccc2c(c1)CN([C@H]1CCC(=O)NC1=O)C2=O [Example 92, (3S)-3-(5-{[(3S,4S)-1-[(2-{4-acetyl-4,7-diazaspiro[2.5]octan-7-yl}-8-fluoroquinolin-6-yl)methyl]-4-(methoxymethyl)pyrrolidin-3-yl]oxy}-1-oxo-2,3-dihydro-1H-isoindol-2-yl)piperidine-2,6-dione]	10.9	21.4
–	27.7	1	9	COC[C@@H]1CN(Cc2cc(F)c3nc(C4CCCCO4)ccc3c2)C[C@H]1Oc1ccc2c(c1)CN([C@H]1CCC(=O)NC1=O)C2=O (relative stereo) [Example 69, rel-(3S)-3-(5-{[(3S,4S)-1-{[8-fluoro-2-(oxan-2-yl)quinolin-6-yl]methyl}-4-(methoxymethyl)pyrrolidin-3-yl]oxy}-1-oxo-2,3-dihydro-1H-isoindol-2-yl)piperidine-2,6-dione]	8.6	20.5
–	19.9	1	24	COC[C@@H]1CN(Cc2cc(F)c3nc(N4CCN(C5COC5)CC4)ccc3c2)C[C@H]1Oc1ccc2c(c1)CN([C@H]1CCC(=O)NC1=O)C2=O [Example 142, (3S)-3-(5-{[(3S,4S)-1-({8-fluoro-2-[4-(oxetan-3-yl)piperazin-1-yl]quinolin-6-yl}methyl)-4-(methoxymethyl)pyrrolidin-3-yl]oxy}-1-oxo-2,3-dihydro-1H-isoindol-2-yl)piperidine-2,6-dione]	7.1	43.3
–	21.3	1	18	COC[C@@H]1CN(Cc2ccc3nc(N4CCN(C5COC5)CC4)ccc3c2)C[C@H]1Oc1ccc2c(c1)CN([C@H]1CCC(=O)NC1=O)C2=O [Example 104, (3S)-3-(5-{[(3S,4S)-4-(methoxymethyl)-1-({2-[4-(oxetan-3-yl)piperazin-1-yl]quinolin-6-yl}methyl)pyrrolidin-3-yl]oxy}-1-oxo-2,3-dihydro-1H-isoindol-2-yl)piperidine-2,6-dione]	8.2	42.5
